# Source: patent publication US6642227B2, “Inhibitors of c-Jun N-terminal kinases (JNK) and other protein kinases” (Vertex Pharmaceuticals Incorporated, priority 2001, dated 2003)
# Experiments:
# Format in all cases: biochemical
# activated JNK3 = target: T1, activated JNK3 (Homo sapiens, UniProt P53779); test: JNK inhibition assay (spectrophotometric coupled-enzyme assay)
# T1 construct: One such construct encodes amino acid residues Ser40-Glu402 of JNK3α1 and is preceded by Met and Gly residues; Met-Gly dipeptide (initiator Met plus Gly added for the NcoI site) (N); made in house; host or cells: E. coli BL21 (DE3)
# From the text: A BLAST search of the EST database using the published JNK3α1 cDNA as a query identified an EST clone (#632588) that contained the entire coding sequence for human JNK3α1. Polymerase chain reactions (PCR) using pfu polymerase (Strategene) were used to introduce restriction sites into the cDNA for cloning into the pET-15B expression vector at the NcoI and BamHI sites. The protein was expressed in E. coli. Due to the poor solubility of the expressed full-length protein (Met 1-Gln 422), an N-terminally truncated protein starting at Ser residue at position 40 (Ser 40) was produced. This truncation corresponds to Ser 2 of JNK1 and JNK2 proteins, and is preceded by a methionine (initiation) and a glycine residue. The glycine residue was added in order to introduce an NcoI site for cloning into the expression vector. In addition, systematic C-terminal truncations were performed by PCR to identify a construct that give rise to diffraction-quality crystals. One such construct encodes amino acid residues Ser40-Glu402 of JNK3α1 and is preceded by Met and Gly residues.
# The construct was prepared by PCR using deoxyoligonucleotides: 5′ […] 3′ (forward primer with initiation codon underlined)(SEQ ID NO:1) and 5′ […] 3′ (reverse primer with stop codon underlined)(SEQ ID NO:2) as primers and was confirmed by DNA sequencing.
# E.coli strain BL21 (DE3) (Novagen) was transformed with the JNK3 expression construct and grown at 30° C. in LB supplemented with 100 μg/ml carbenicillin in shaker flasks until the cells were in log phase (OD600˜0.8). Isopropylthio-β-D-[…] (IPTG) was added to a final concentration of 0.8 mM and the cells were harvested 2 hours later by centrifugation.
# E. coli cell paste containing JNK3 was resuspended in 10 volumes/g lysis buffer (50 mM HEPES, pH 7.2, containing 10% glycerol (v/v), 100 mM NaCl, 2 mM DTT, 0.1 mM PMSF, 2 μg/ml Pepstatin, lug/ml each of E-64 and Leupeptin). Cells were lysed on ice using a microfluidizer and centrifuged at 100,000×g for 30 min at 4° C. The 100,000×g supernatant was diluted 1:5 with Buffer A (20 mM HEPES, pH 7.0, 10% glycerol (v/v), 2 mM DTT) and purified by SP-Sepharose (Pharmacia) cation-exchange chromatography (column dimensions: 2.6×20 cm) at 4° C. The resin was washed with 5 column volumes of Buffer A, followed by 5 column volumes of Buffer A containing 50 mM NaCl. Bound JNK3 was eluted with a 7.5 column volume linear gradient of 50-300 mM NaCl. JNK3 eluted between 150-200 mM NaCl.
# Five mg of JNK3 was diluted to 0.5 mg/ml in 50 mM HEPES buffer, pH 7.5, containing 100 mM NaCl, 5 mM DTT, 20 mM MgCl2 and 1 mM ATP. GST-MKK7(DD) was added at a molar ratio of 1:2.5 GST-MKK7:JNK3. After incubation for 30 minutes at 25° C., the reaction mixture was concentrated 5-fold by ultrafiltration in a Centriprep-30 (Amicon, Beverly, Mass.), diluted to 10 ml and an additional 1 mM ATP added. This procedure was repeated three times to remove ADP and replenish ATP. The final addition of ATP was 5 mM and the mixture incubated overnight at 4° C.
# The activated JNK3/GST-MKK7(DD) reaction mixture was exchanged into 50 mM HEPES buffer, pH 7.5, containing 5 mM DTT and 5% glycerol (w/v) by dialysis or ultrafiltration. The reaction mixture was adjusted to 1.1 M potassium phosphate, pH 7.5, and purified by hydrophobic interaction chromatography (at 25° C.) using a Rainin Hydropore column. […] Activated JNK3 (i.e. doubly phosphorylated JNK3) was stored at −70° C. at 0.25-1 mg/ml.
# Compounds were assayed for the inhibition of JNK3 by a spectrophotometric coupled-enzyme assay. In this assay, a fixed concentration of activated JNK3 (10 nM) was incubated with various concentrations of a potential inhibitor dissolved in DMSO for 10 minutes at 30° C. in a buffer containing 0.1 M HEPES buffer, pH 7.5, containing 10 mM MgCl2, 2.5 mM phosphoenolpyruvate, 200 μM NADH, 150 μg/mL pyruvate kinase, 50 μg/mL lactate dehydrogenase, and 200 μM EGF receptor peptide. […]
# human Src kinase = target: T2, human Src kinase (Homo sapiens, UniProt P12931); test: Src inhibition assay (A: radioactivity-based or B: spectrophotometric coupled-enzyme assay); conditions: assay A or B not specified; inhibitor concentration not given
# T2 construct: full length recombinant human Src kinase; purchased Upstate Biotechnology 14-117; host or cells: baculovirus-infected cells
# Experimental: The compounds were evaluated as inhibitors of human Src kinase using either a radioactivity-based assay or spectrophotometric assay.
# The compounds were assayed as inhibitors of full length recombinant human Src kinase (from Upstate Biotechnology, cat. no. 14-117) expressed and purified from baculo viral cells. Src kinase activity was monitored by following the incorporation of ^33p from ATP into the tyrosine of a random poly Glu-Tyr polymer substrate of composition, Glu:Tyr=4:1 (Sigma, cat. no. P-0275). The following were the final concentrations of the assay components: 0.05 M HEPES, pH 7.6, 10 mM MgCl2, 2 mM DTT, 0.25 mg/ml BSA, 10 μM ATP (1-2 uCi ^33P-ATP per reaction), 5 mg/ml poly Glu-Tyr, and 1-2 units of recombinant human Src kinase. In a typical assay, all the reaction components with the exception of ATP were pre-mixed and aliquoted into assay plate wells.
# Inhibitors dissolved in DMSO were added to the wells to give a final DMSO concentration of 2.5%. The assay plate was incubated at 30° C. for 10 min before initiating the reaction with ^33P-ATP. After 20 min of reaction, the reactions were quenched with 150 μl of 10% trichloroacetic acid (TCA) containing 20 mM Na3PO4. The quenched samples were then transferred to a 96-well filter plate (Whatman, UNI-Filter GF/F Glass Fiber Filter, cat no. 7700-3310) installed on a filter plate vacuum manifold. Filter plates were washed four times with 10% TCA containing 20 mM Na3PO4 and then 4 times with methanol. 200 μl of scintillation fluid was then added to each well. The plates were sealed and the amount of radioactivity associated with the filters was quantified on a TopCount scintillation counter. The radioactivity incorporated was plotted as a function of the inhibitor concentration. The data was fitted to a competitive inhibition kinetics model to get the Ki for the compound.
# (§1) The ADP produced from ATP by the human recombinant Src kinase-catalyzed phosphorylation of poly Glu-Tyr substrate was quanitified using a coupled enzyme assay (Fox et al (1998) Protein Sci 7, 2249). In this assay one molecule of NADH is oxidised to NAD for every molecule of ADP produced in the kinase reaction. The disappearance of NADH can be conveniently followed at 340 nm.
# (§2) The following were the final concentrations of the assay components: 0.025 M HEPES, pH 7.6, 10 mM MgCl2, 2 mM DTT, 0.25 mg/ml poly Glu-Tyr, and 25 nM of recombinant human Src kinase. Final concentrations of the components of the coupled enzyme system were 2.5 mM phosphoenolpyruvate, 200 μM NADH, 30 μg/ml pyruvate kinase and 10 μg/ml lactate dehydrogenase.
# (§3) In a typical assay, all the reaction components with the exception of ATP were pre-mixed and aliquoted into assay plate wells. Inhibitors dissolved in DMSO were added to the wells to give a final DMSO concentration of 2.5%. The assay plate was incubated at 30 C. for 10 min before initiating the reaction with 100 μM ATP. The absorbance change at 340 nm with time, the rate of the reaction, was monitored on a molecular devices plate reader. The data of rate as a function of the inhibitor concentration was fitted to compettive inhibition kinetics model to get the Ki for the compound.
# human Lck kinase = human Lck kinase (UniProt P06239); test: Lck inhibition assay (A: radioactivity-based or B: spectrophotometric coupled-enzyme assay); conditions: read-out: Lck Activity (Ki rating)
# Experimental: The compounds were evaluated as inhibitors of human Lck kinase using either a radioactivity-based assay or spectrophotometric assay.
# The compounds were assayed as inhibitors of full length bovine thymus Lck kinase (from Upstate Biotechnology, cat. no. 14-106) expressed and purified from baculo viral cells. Lck kinase activity was monitored by following the incorporation of ^33p from ATP into the tyrosine of a random poly Glu-Tyr polymer substrate of composition, Glu:Tyr=4:1 (Sigma, cat. no. P-0275). The following were the final concentrations of the assay components: 0.025 M HEPES, pH 7.6, 10 mM MgCl2, 2 mM DTT, 0.25 mg/ml BSA, 10 μM ATP (1-2 μCi ^33P-ATP per reaction), 5 mg/ml poly Glu-Tyr, and 1-2 units of recombinant human […] kinase. In a typical assay, all the reaction components with the exception of ATP were pre-mixed and aliquoted into assay plate wells. Inhibitors dissolved in DMSO were added to the wells to give a final DMSO concentration of 2.5%. The assay plate was incubated at 30 C. for 10 min before initiating the reaction with ^33P-ATP. After 20 min of reaction, the reactions were quenched with 150 μl of 10% trichloroacetic acid (TCA) containing 20 mM Na3PO4. The quenched samples were then transferred to a 96-well filter plate (Whatman, UNI-Filter GF/F Glass Fiber Filter, cat no. 7700-3310) installed on a filter plate vacuum manifold. Filter plates were washed four times with 10% TCA containing 20 mM Na3PO4 and then 4 times with methanol. 200 μl of scintillation fluid was then added to each well. The plates were sealed and the amount of radioactivity associated with the filters was quantified on a TopCount scintillation counter. The radioactivity incorporated was plotted as a function of the inhibitor concentration. The data was fitted to a competitive inhibition kinetics model to get the Ki for the compound.
# as §1, with “Lck” for “Src”
# as §2, with “DTT, 5” for “DTT, 0.25”, “and 50” for “and 25”, “human Lck” for “human Src”
# as §3, with “30°” for “30”, “150” for “100”, “competitive” for “compettive”
# T1 sequence (P53779 40-402): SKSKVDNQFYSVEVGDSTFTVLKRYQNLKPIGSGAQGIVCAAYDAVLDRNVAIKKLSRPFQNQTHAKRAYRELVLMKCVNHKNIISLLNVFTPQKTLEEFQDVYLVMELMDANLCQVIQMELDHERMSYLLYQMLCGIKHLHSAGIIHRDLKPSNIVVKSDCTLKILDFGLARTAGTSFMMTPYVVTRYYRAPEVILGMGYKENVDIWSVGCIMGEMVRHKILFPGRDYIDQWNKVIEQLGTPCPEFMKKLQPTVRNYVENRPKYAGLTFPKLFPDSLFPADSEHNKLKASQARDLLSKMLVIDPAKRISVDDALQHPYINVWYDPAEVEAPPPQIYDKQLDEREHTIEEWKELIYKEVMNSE
# T2 sequence (P12931 whole entry): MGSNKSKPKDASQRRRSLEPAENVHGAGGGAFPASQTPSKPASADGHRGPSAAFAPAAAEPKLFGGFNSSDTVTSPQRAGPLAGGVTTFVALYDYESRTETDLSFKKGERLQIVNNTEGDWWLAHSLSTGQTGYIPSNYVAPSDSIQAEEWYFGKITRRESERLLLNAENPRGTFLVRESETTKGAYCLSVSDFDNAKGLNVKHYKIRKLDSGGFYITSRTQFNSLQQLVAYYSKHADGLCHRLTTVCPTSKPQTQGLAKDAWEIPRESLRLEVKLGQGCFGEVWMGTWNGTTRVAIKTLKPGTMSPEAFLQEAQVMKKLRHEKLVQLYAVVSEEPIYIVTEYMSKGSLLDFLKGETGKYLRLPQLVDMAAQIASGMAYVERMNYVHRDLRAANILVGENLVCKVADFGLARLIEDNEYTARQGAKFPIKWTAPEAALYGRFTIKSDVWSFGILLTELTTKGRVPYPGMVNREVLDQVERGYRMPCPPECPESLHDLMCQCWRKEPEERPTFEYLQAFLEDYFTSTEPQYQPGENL
"Ki (activated JNK3; activated JNK3 10 nM, 10 μM ATP, 30° C., read-out: JNK3 Activity (Ki class A-C)) [nM]",Ki (human Lck kinase) [nM],SMILES,JNK3 Activity (percent inhibition class D-F) (activated JNK3; inhibitor concentration not given),Src Activity (percent inhibition class D-F) (human Src kinase)
–,–,"CSc1sc(-c2nc(C)cs2)c(C)c1-c1ccnc(Nc2ccccc2)n1 [IIb-1, {4-[4-methyl-2-methylsulfanyl-5-(4-methyl-thiazol-2-yl)-thiophen-3-yl]-pyrimidin-2-yl}-phenylamine]",D (Compounds having an activity designated as “D” provided a percent inhibition less than or equal to 24%),D (Compounds having an activity designated as “D” provided a percent inhibition less than or equal to 24%)
100 to 1000,< 100,"Cc1cnc(Nc2ccccc2)nc1-c1sc(SCc2ccc(O)cc2)c(C#N)c1-c1cccc(Cl)c1 [Compound V-1, 4-(3-chloro-phenyl)-2-(4-hydroxy-benzylsulfanyl)-5-(5-methyl-2-phenylamino-pyrimidin-4-yl)-thiophene-3-carbonitrile]",–,–
